From patent US20190350898A1, “METHODS AND COMPOSITIONS FOR TREATMENT OF ALZHEIMER'S DISEASE” (Neurotrope Bioscience, Inc., priority 2018, published 2019)
Several values for one entry are separate records, joined by “and”; a condition that tells them apart may be missing. Equal entries are not always repeated. Entries after “also recorded” stand apart in the source; their conditions may differ.

Tests used:
[1] = test system: patients with advanced Alzheimer's disease; assay: Severe Impairment Battery (SIB) change from baseline, double-blind randomized placebo-controlled trial; type: in vivo, human; conditions: for Mean slope of SIB over time, Unweight Slope / Mean slope of SIB over time, Weighted Slope: 20 μg Bryostatin; for Mean slope of SIB over time, Unweight Slope: baseline to week 15; for Mean slope of SIB over time, Weighted Slope: weighted by number of non-zero SIB scores; for SIB Total change from baseline, LS Mean (SE) / SIB Total, Difference vs. Placebo / SIB Total change from baseline, LS Mean: Bryostatin 20 μg; for SIB Delta at Ave of Week 13 and 15, Mean / SIB Delta at Week 5, Mean / SIB Delta at Week 9, Mean / SIB Delta at Week 13, Mean: Low dose (20), unadjusted; for Combined treatment effect, mean improvement in SIB over placebo: bryostatin 20 μg, post-hoc MMRM; for SIB Total LS Mean difference between 20 μg group and placebo: week 13
Procedure: In a double-blind, randomized, placebo-controlled trial, bryostatin was administered by intravenous infusion (˜45 minutes) to patients with advanced Alzheimer's disease for 12 weeks at doses of 20 or 40 μg. Randomization was stratified at baseline by severe (MMSE-2, 4-9) and moderate (MMSE-2, 10-15) dementia, wherein MMSE-2 refers to Mini-Mental State Examination, version 2. The MMSE or Folstein test is a 30-point questionnaire that is used extensively in clinical and research settings to measure cognitive impairment. Low scores indicate greater impairment. Version 2 of the MMSE was published in 2010, expanding the original questionnaire's usefulness in populations with milder forms of cognitive impairment. […] Importantly, this cognitive improvement persisted and increased 30 days after all bryostatin dosing had been completed.
Adults aged 55-85 with cognitive deficits present for at least 2 years, MMSE-2 of 4-15, inclusive, and a diagnosis of Alzheimer's dementia were randomly assigned to receive blinded intravenous infusions of bryostatin 24 μg or matching placebo at weeks 0 and 1. The 24 μg and 48 μg doses during the first two weeks of the 20 and 40 μg protocols respectively were considered to be “loading” doses thought to be beneficial from prior experience with Compassionate Use trial patients. Nelson et al., Alzheimers Dis. 2017 58: 521-535. In one arm, the two 24 μg doses were followed by 20 μg doses at weeks 5, 7, 9 and 11 with the Severe Impairment Battery (SIB) measured at baseline and weeks 5, 9, 13, and 15. In a second arm, the two 48 μg doses at weeks 0 and 1 were followed by 40 μg doses at weeks 5, 7, 9, and 11 with the SIB measured at baseline and weeks 5, 9, 13, and 15. The subjects were stratified by MMSE-2 in two strata: Stratum 1 (4-9) and Stratum 2 (10-15). The first primary endpoint was safety and tolerability, assessed by treatment emergent adverse events (TEAEs) with a sample size of 150 subjects randomized 1:1:1. Although efficacy was the secondary measure, the primary efficacy endpoint was SIB improvement at week 13 evaluated using a mixed model for repeated measures. A secondary efficacy endpoint was ADCS-ADL Sev. The primary safety population included all subjects who received at least 1 dose of study drug, and efficacy was evaluated in a modified intent to treat (mITT) population that received at least 1 dose of study drug and had at least one treatment evaluation. Efficacy was evaluated both as a primary end-point in the modified intent-to-treat (mITT) population and also as a primary end point in a Completers population that included all patients that completed the entire protocols as described above.
The SIB efficacy measurement at 30 days (week 15) post dosing—after all dosing had been completed (last dose administered at week 11)—was a pre-specified exploratory endpoint. Week 15 results were only included for subjects who were not re-randomized. The mixed model assumes missing at random, but order of enrollment in the trial was not random. Since order of enrollment was not random, the assumption of missing at random is not met. For this reason, only including week 15 for those who were not re-randomized is an appropriate way to estimate week 15 results, but not an appropriate way to estimate results at the earlier visits. For this reason, estimates up through week 13 are from a mixed model that only included data through week 13 and the week 15 estimates are from a separate model. Results were generated using a mixed model with repeated measures predicting change from baseline in SIB Total Score as the response variable and using baseline score, baseline MMSE strata, treatment, visit (categorical), and visit (treatment) as predictors. […]

[2] = test system: patients with advanced Alzheimer's disease; assay: Safety and tolerability, treatment emergent adverse events (TEAEs), same trial; type: in vivo, human; conditions: 40 μg group
Procedure: In a double-blind, randomized, placebo-controlled trial, bryostatin was administered by intravenous infusion (˜45 minutes) to patients with advanced Alzheimer's disease for 12 weeks at doses of 20 or 40 μg. Randomization was stratified at baseline by severe (MMSE-2, 4-9) and moderate (MMSE-2, 10-15) dementia, wherein MMSE-2 refers to Mini-Mental State Examination, version 2. The MMSE or Folstein test is a 30-point questionnaire that is used extensively in clinical and research settings to measure cognitive impairment. Low scores indicate greater impairment. […]
Adults aged 55-85 with cognitive deficits present for at least 2 years, MMSE-2 of 4-15, inclusive, and a diagnosis of Alzheimer's dementia were randomly assigned to receive blinded intravenous infusions of bryostatin 24 μg or matching placebo at weeks 0 and 1. […] In one arm, the two 24 μg doses were followed by 20 μg doses at weeks 5, 7, 9 and 11 with the Severe Impairment Battery (SIB) measured at baseline and weeks 5, 9, 13, and 15. In a second arm, the two 48 μg doses at weeks 0 and 1 were followed by 40 μg doses at weeks 5, 7, 9, and 11 with the SIB measured at baseline and weeks 5, 9, 13, and 15. […] The first primary endpoint was safety and tolerability, assessed by treatment emergent adverse events (TEAEs) with a sample size of 150 subjects randomized 1:1:1. […]

[3] = Week 5, Completer, With Memantine
[4] = Week 5, Completer, Without Memantine
[5] = Week 9, Completer, With Memantine
[6] = Week 9, Completer, Without Memantine
[7] = Week 13, Completer, With Memantine
[8] = Week 13, Completer, Without Memantine
[9] = Week 13, FAS (mITT), With Memantine
[10] = Week 13, FAS (mITT), Without Memantine
[11] = Week 15 (30 days post dosing), Completer, MMRM
[12] = Week 15 (30 days post dosing), FAS, MMRM
[13] = Week 15, Completer, With Memantine
[14] = Week 15, Completer, Without Memantine
[15] = Week 15, FAS (mITT), Without Memantine
[16] = Memantine Exposed Patients, FAS
[17] = Memantine Treatment-Naïve Patients, FAS

## CCC/C=C/C=C/C(=O)O[C@H]1/C(=C/C(=O)OC)C[C@H]2C[C@H]([C@@H](C)O)OC(=O)C[C@H](O)C[C@@H]3C[C@H](OC(C)=O)C(C)(C)[C@](O)(C[C@@H]4C/C(=C/C(=O)OC)C[C@H](/C=C/C(C)(C)[C@]1(O)O2)O4)O3 [Bryostatin, bryostatin-1]
[1]; first column group (strata head not given, probably memantine naïve)
  Mean slope of SIB over time, Unweight Slope: 0.382
[1]; second column group (strata head not given, probably memantine exposed)
  Mean slope of SIB over time, Unweight Slope: −0.143
[1]; first column group (probably memantine naïve)
  Mean slope of SIB over time, Weighted Slope: 0.363
[1]; second column group (probably memantine exposed)
  Mean slope of SIB over time, Weighted Slope: −0.099
[1]; 20 μg arm, week 5, after 3 doses
  SIB improvement at week 5 compared to placebo and baseline: significant improvement
[1]; 20 μg dose, patients on memantine background therapy
  SIB improvement compared to placebo: no SIB improvement; also recorded: did not occur
[1]; 20 μg dose, throughout the 13-week trial
  SIB improvement versus baseline and placebo: sustained improvements in SIB scores; also recorded: sustained efficacy; also recorded: sustained improvement in SIB
[1]; 40 μg dose
  SIB improvement versus baseline and placebo: lack of efficacy; also recorded: no SIB improvement
[1]; Week 5, Completer, MMRM
  SIB Total change from baseline, LS Mean (SE): 1.67 (0.964)
  SIB Total, Difference vs. Placebo: 4.00
[1]; [3]
  SIB Total change from baseline, LS Mean: 0.61
  SIB Total, Difference vs. Placebo: 2.94
[1]; [4]
  SIB Total change from baseline, LS Mean: 3.22
  SIB Total, Difference vs. Placebo: 5.38
[1]; Week 5, FAS, MMRM
  SIB Total change from baseline, LS Mean (SE): 1.18 (1.102)
  SIB Total, Difference vs. Placebo: 2.96
[1]; Week 5, FAS, With Memantine
  SIB Total change from baseline, LS Mean: 0.26
  SIB Total, Difference vs. Placebo: 1.96
[1]; Week 5, FAS, Without Memantine
  SIB Total change from baseline, LS Mean: 2.74
  SIB Total, Difference vs. Placebo: 4.48
[1]; Week 9, Completer, MMRM
  SIB Total change from baseline, LS Mean (SE): 1.28 (1.119)
  SIB Total, Difference vs. Placebo: 1.85
[1]; [5]
  SIB Total change from baseline, LS Mean: −0.16
  SIB Total, Difference vs. Placebo: 0.90
[1]; [6]
  SIB Total change from baseline, LS Mean: 3.34
  SIB Total, Difference vs. Placebo: 2.66
[1]; Week 9, FAS, MMRM
  SIB Total change from baseline, LS Mean (SE): 0.94 (1.149)
  SIB Total, Difference vs. Placebo: 1.03
[1]; Week 9, FAS, With Memantine
  SIB Total change from baseline, LS Mean: −0.33
  SIB Total, Difference vs. Placebo: 0.09
[1]; Week 9, FAS, Without Memantine
  SIB Total change from baseline, LS Mean: 2.95
  SIB Total, Difference vs. Placebo: 2.08
[1]; Week 13, Completer, MMRM
  SIB Total change from baseline, LS Mean (SE): 1.51 (1.118)
  SIB Total, Difference vs. Placebo: 2.63
[1]; Week 13, Completer, MMRM, listed as bryostatin
  SIB Total, Difference vs. Placebo: 2.6
[1]; [7]
  SIB Total change from baseline, LS Mean: −0.39
  SIB Total, Difference vs. Placebo: 0.56
[1]; [8]
  SIB Total change from baseline, LS Mean: 4.22
  SIB Total, Difference vs. Placebo: 5.53
[1]; [9]
  SIB Total change from baseline, LS Mean: −0.60
  SIB Total, Difference vs. Placebo: −0.14
[1]; [10]
  SIB Total change from baseline, LS Mean: 3.83 points
  SIB Total, Difference vs. Placebo: 5.11
[1]; Week 13, FAS, MMRM
  SIB Total change from baseline, LS Mean (SE): 1.16 (1.150)
  SIB Total, Difference vs. Placebo: 1.94
[1]; [11]
  SIB Total change from baseline, LS Mean (SE): 1.96 (1.255)
  SIB Total, Difference vs. Placebo: 4.09
[1]; Week 15 (30 days post dosing), Completer, MMRM, listed as bryostatin
  SIB Total, Difference vs. Placebo: 4.0 and 4.09
[1]; [12]
  SIB Total change from baseline, LS Mean (SE): 1.77 (1.342) points
  SIB Total, Difference vs. Placebo: 3.59
[1]; Week 15 (30 days post dosing), FAS, MMRM, listed as bryostatin
  SIB Total change from baseline, LS Mean (SE): 1.77 points
[1]; [13]
  SIB Total change from baseline, LS Mean: −0.71
  SIB Total, Difference vs. Placebo: 1.45
[1]; [14]
  SIB Total change from baseline, LS Mean: 6.24
  SIB Total, Difference vs. Placebo: 6.36
[1]; [15]
  SIB Total change from baseline, LS Mean: 5.88 points
  SIB Total, Difference vs. Placebo: 5.93
[1]; Week 15, FAS, With Memantine
  SIB Total change from baseline, LS Mean: −0.83
  SIB Total, Difference vs. Placebo: 0.79
[1]; Completers, 20 μg group 'without memantine' as printed
  13-week LS Mean change in SIB (so in the source): 0.56
[1]; [16]
  SIB Delta at Ave of Week 13 and 15, Mean: −0.727
  SIB Delta at Week 5, Mean: 0.077
  SIB Delta at Week 9, Mean: −0.087
  SIB Delta at Week 13, Mean: −0.545
[1]; [17]
  SIB Delta at Ave of Week 13 and 15, Mean: 5.406
  SIB Delta at Week 5, Mean: 3.444
  SIB Delta at Week 9, Mean: 3.467
  SIB Delta at Week 13, Mean: 4.500
[1]; Memantine Exposed, adjusted for Base SIB, MMSE-2
  Treatment, adjusted slope (ANCOVA, SIB at 13/15 weeks from baseline, 20 μg Bryostatin vs placebo): −0.620 (p = 0.815)
[1]; Memantine Exposed, adjusted for Baseline SIB
  Treatment, adjusted slope (ANCOVA, SIB at 13/15 weeks from baseline, 20 μg Bryostatin vs placebo): −0.531 (p = 0.843)
[1]; Memantine Naïve, adjusted for Base SIB, MMSE-2
  Treatment, adjusted slope (ANCOVA, SIB at 13/15 weeks from baseline, 20 μg Bryostatin vs placebo): 5.923 (p = 0.002)
[1]; Memantine Naïve, adjusted for Baseline SIB
  Treatment, adjusted slope (ANCOVA, SIB at 13/15 weeks from baseline, 20 μg Bryostatin vs placebo): 5.426 (p = 0.010)
[1]; Weeks 5, 9, 13, and 15, 30-Day Follow-up population
  Combined treatment effect, mean improvement in SIB over placebo: 4.721
[1]; Weeks 5, 9, and 13, Completer population
  Combined treatment effect, mean improvement in SIB over placebo: 3.089
[1]; Weeks 5, 9, and 13, FAS population
  Combined treatment effect, mean improvement in SIB over placebo: 2.146
[1]; AChEI non-users
  SIB Total LS Mean difference between 20 μg group and placebo: 2.00
[1]; AChEI users
  SIB Total LS Mean difference between 20 μg group and placebo: 2.09
[2]
  Safety results (adverse events): more adverse events
